Article PMC3425544, “The S100A10 Subunit of the Annexin A2 Heterotetramer Facilitates L2-Mediated Human Papillomavirus Infection” (PLoS ONE, 2012)

Test system: A2t (annexin A2 heterotetramer)
Assay: EPR binding of L2 peptide to A2t
Set-up: species or system human
Details: mean of three separate experiments
From the text: Next, we wanted to determine if there was a specific interaction between the L2_108–126 peptide and A2t using electron paramagnetic resonance (EPR) spectroscopy. EPR is a method of magnetic resonance spectroscopy measuring unpaired electrons whose underlying basic concepts are not unlike the more widely used technique of nuclear magnetic resonance (NMR) (reviewed in [43]). When coupled with site-directed paramagnetic-labeling, such as the attachment of a moiety with an unpaired electron to a cysteine residue, EPR can be used to obtain structural information within a small vicinity of the paramagnetic-label’s positions along the protein sequence. As a paramagnetic-label becomes locally constrained, such as when bound to another protein, its spectra will drastically change as visualized by a decrease in line amplitude and increased line-broadening. Therefore, EPR provides an in vitro biochemical method that measures protein-protein interactions by monitoring changes in the spectra recorded for a labeled protein in different experimental settings.
For our purposes, an N-terminal cysteine (with a 3 native aa spacer) contained in the L2_108–126 peptide (C-IVS-[…]) was paramagnetic-labeled (an unpaired-electron-containing small molecule was cross-linked via a disulfide bond to the peptide), and its spectra were analyzed after incubation with and without purified human recombinant A2t or controls. […]
Recombinant annexin A2 was expressed in BL21(DE3) Escherichia coli cells and purified using reversible Ca^2+-dependent binding to negatively charged phospholipid vesicles followed by size exclusion chromatography. […] Concentrations of all proteins and peptides, including the A2t complex, were determined using bicinchoninic acid assays (Pierce Thermo Scientific, Rockford, IL) compared to measured absorbance of albumin standards at 562 nm. […]

## C-IVS-LVEETSFIDAGAPTSVPSI [L2_108–126, HPV16 L2 aa 108–126 peptide with N-terminal cysteine and IVS spacer]
20 µM paramagnetic-labeled (MTSL) L2 peptide, 100 µM A2t, HEPES pH 7.4, room temperature
  relative % bound to A2t: 78.0%
non-paramagnetic-labeled ScrL2 to WT L2_108–126 5∶1 molar ratio
  relative % bound to A2t in presence of ScrL2: 75.8%
